{"source": "patent US20230381155A1", "about": "“TREATMENT OF BREAST CANCER USING COMBINATION THERAPIES COMPRISING GDC-9545 AND GDC-0077” (Genentech, Inc., priority 2021, published 2023)", "key": {"[1]": {"test": "human steady-state total drug exposure, GDC-9545 versus fulvestrant", "format": "in vivo", "conditions": "GDC-9545 30 mg QD versus fulvestrant 500 mg IM monthly"}, "[2]": {"format": "in vitro ADME"}, "[3]": {"tested_on": "ER, wild-type and ESR1-mutant contexts", "test": "in vitro cell and biochemical assays, potency versus fulvestrant"}, "ER": {"biological_target": "T1, ER (Homo sapiens, UniProt P03372)", "T1 sequence (P03372 1-595)": "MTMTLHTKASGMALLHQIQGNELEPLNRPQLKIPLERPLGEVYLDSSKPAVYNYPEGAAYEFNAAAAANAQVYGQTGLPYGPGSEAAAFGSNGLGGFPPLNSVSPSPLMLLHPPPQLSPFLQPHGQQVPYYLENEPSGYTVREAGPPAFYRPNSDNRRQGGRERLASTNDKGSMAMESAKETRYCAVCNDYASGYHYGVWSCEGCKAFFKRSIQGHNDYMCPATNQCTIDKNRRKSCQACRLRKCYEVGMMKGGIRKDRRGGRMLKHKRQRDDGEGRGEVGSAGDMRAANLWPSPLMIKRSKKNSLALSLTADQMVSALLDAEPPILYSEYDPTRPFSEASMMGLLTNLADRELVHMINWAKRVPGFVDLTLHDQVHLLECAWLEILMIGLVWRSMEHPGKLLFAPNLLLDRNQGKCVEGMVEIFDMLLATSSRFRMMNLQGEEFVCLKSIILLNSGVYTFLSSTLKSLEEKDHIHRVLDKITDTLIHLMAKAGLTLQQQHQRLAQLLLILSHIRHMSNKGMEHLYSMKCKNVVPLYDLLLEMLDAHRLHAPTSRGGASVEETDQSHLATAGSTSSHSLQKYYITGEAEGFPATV", "test": "competition with estrogens for binding to the ER"}, "oral bioavailability": {"test": "oral bioavailability", "conditions": "in vivo"}, "[4]": {"tested_on": "ER+ breast cancer models of ESR1-wild type and ESR1-mutation-bearing disease", "test": "nonclinical activity in ER+ breast cancer models"}, "[5]": {"tested_on": "ESR1 wildtype MCF-7 (PIK3CA.E545K) cells", "test": "CyQUANT relative viability, MCF-7 wildtype ESR1", "format": "cell-based", "conditions": "300 nM GDC-9545, 80 nM GDC-0077, alone or combined; 0.1 nmol/L E2; 6 to 8 days", "procedure": "(§1) Cells were treated as shown for 6 to 8 days, and relative viability was assessed. *p<0.0001, parametric t-test.\nESR1 wildtype MCF-7 (PIK3CA.E545K) and T-47D (PIK3CA.H1047R) cells, and engineered ESR1 mutant cells [MCF-7.ER.Y537S, T-47D.ER.D538G] were grown under standard cell culture conditions in RPMI media with 10% fetal bovine serum. One day prior to the addition of drugs, cells were seeded in 384-well plates in phenol red-free RPMI with 10% charcoal-stripped fetal bovine serum in order to deprive the cells of hormones. Single agent 300 nM GDC-9545, 80 nM GDC-0077, 125 nM palbociclib or a combination thereof, were tested in quadruplicate in the presence of 0.1 nmol/L estradiol (E2) during a 6-day or 8-day incubation period. The absence of E2 in the media (−E2) serves to mimic treatment with an Aromatase Inhibitor (AI). The combination of E2 withdrawal plus palbociclib—reflecting the current standard of care for metastatic breast cancer—was included. […] The relative number of viable cells at the 6/8-day timepoint was determined by CyQUANT (ThermoFisher, C7026)."}, "MCF-7.ER.Y537S cells": {"tested_on": "MCF-7.ER.Y537S cells", "test": "CyQUANT relative viability, MCF-7.ER.Y537S", "format": "cell-based", "conditions": "300 nM GDC-9545, 80 nM GDC-0077, alone or combined; 0.1 nmol/L E2; 6 to 8 days", "procedure": "as §1\nOne day prior to the addition of drugs, cells were seeded in 384-well plates in phenol red-free RPMI with 10% charcoal-stripped fetal bovine serum in order to deprive the cells of hormones. Single agent 300 nM GDC-9545, 80 nM GDC-0077, 125 nM palbociclib or a combination thereof, were tested in quadruplicate in the presence of 0.1 nmol/L estradiol (E2) during a 6-day or 8-day incubation period. The absence of E2 in the media (−E2) serves to mimic treatment with an Aromatase Inhibitor (AI). The combination of E2 withdrawal plus palbociclib—reflecting the current standard of care for metastatic breast cancer—was included. Drug concentrations of GDC-0077 and palbociclib were chosen to be clinically relevant, based on human exposures. 300 nM GDC-9545 is a saturating concentration that is lower than the human dose equivalent of 30 mg. The relative number of viable cells at the 6/8-day timepoint was determined by CyQUANT (ThermoFisher, C7026)."}, "[6]": {"tested_on": "ESR1 wildtype T-47D (PIK3CA.H1047R) cells", "test": "CyQUANT relative viability, T-47D wildtype ESR1", "format": "cell-based", "conditions": "300 nM GDC-9545, 80 nM GDC-0077, alone or combined; 0.1 nmol/L E2; 6 to 8 days", "method": "Combination of GDC-9545 and GDC-007 was investigated and compared to efficacy of each single agent and to an AI+palbociclib control. ESR1 wildtype MCF-7 (PIK3CA.E545K) and T-47D (PIK3CA.H1047R) cells, and engineered ESR1 mutant cells [MCF-7.ER.Y537S, T-47D.ER.D538G] were grown under standard cell culture conditions in RPMI media with 10% fetal bovine serum. One day prior to the addition of drugs, cells were seeded in 384-well plates in phenol red-free RPMI with 10% charcoal-stripped fetal bovine serum in order to deprive the cells of hormones. Single agent 300 nM GDC-9545, 80 nM GDC-0077, 125 nM palbociclib or a combination thereof, were tested in quadruplicate in the presence of 0.1 nmol/L estradiol (E2) during a 6-day or 8-day incubation period. The absence of E2 in the media (−E2) serves to mimic treatment with an Aromatase Inhibitor (AI). The combination of E2 withdrawal plus palbociclib—reflecting the current standard of care for metastatic breast cancer—was included. Drug concentrations of GDC-0077 and palbociclib were chosen to be clinically relevant, based on human exposures. […] The relative number of viable cells at the 6/8-day timepoint was determined by CyQUANT (ThermoFisher, C7026)."}, "T-47D.ER.D538G cells": {"tested_on": "T-47D.ER.D538G cells", "test": "CyQUANT relative viability, T-47D.ER.D538G", "format": "cell-based", "conditions": "300 nM GDC-9545, 80 nM GDC-0077, alone or combined; 0.1 nmol/L E2; 6 to 8 days", "procedure": "as §1"}, "[7]": {"biological_target": "Class I alpha isoform of phosphatidylinositol 3-kinase (PI3K-α) (Homo sapiens, UniProt P42336)", "sequence (P42336 whole entry, canonical isoform)": "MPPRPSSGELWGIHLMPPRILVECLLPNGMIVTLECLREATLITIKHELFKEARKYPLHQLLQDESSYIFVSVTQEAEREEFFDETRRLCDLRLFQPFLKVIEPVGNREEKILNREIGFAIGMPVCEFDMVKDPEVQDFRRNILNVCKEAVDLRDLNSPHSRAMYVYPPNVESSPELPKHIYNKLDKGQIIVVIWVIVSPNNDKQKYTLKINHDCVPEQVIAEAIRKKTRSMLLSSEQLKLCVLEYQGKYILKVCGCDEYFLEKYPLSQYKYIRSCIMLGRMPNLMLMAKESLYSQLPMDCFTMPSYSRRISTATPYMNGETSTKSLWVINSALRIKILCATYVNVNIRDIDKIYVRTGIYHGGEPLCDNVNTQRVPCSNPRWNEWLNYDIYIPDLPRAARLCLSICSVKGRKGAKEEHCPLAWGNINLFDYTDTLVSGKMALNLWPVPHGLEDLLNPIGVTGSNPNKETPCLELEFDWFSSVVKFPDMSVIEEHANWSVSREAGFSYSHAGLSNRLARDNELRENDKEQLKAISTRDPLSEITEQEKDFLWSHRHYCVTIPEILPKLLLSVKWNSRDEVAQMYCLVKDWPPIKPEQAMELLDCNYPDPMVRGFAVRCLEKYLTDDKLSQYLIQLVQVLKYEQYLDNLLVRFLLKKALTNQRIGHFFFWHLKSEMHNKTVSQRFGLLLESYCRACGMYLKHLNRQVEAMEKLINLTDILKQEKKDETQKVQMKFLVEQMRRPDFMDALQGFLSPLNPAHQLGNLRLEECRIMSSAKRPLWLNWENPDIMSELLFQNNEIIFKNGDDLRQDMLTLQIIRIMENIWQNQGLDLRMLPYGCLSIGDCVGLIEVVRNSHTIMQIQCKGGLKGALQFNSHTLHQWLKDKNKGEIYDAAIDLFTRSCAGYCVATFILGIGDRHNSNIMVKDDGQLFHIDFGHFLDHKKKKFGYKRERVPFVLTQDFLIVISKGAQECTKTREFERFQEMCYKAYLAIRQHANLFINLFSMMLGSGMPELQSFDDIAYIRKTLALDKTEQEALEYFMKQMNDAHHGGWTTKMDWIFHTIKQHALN", "sequence (P27986 whole entry partner, canonical isoform)": "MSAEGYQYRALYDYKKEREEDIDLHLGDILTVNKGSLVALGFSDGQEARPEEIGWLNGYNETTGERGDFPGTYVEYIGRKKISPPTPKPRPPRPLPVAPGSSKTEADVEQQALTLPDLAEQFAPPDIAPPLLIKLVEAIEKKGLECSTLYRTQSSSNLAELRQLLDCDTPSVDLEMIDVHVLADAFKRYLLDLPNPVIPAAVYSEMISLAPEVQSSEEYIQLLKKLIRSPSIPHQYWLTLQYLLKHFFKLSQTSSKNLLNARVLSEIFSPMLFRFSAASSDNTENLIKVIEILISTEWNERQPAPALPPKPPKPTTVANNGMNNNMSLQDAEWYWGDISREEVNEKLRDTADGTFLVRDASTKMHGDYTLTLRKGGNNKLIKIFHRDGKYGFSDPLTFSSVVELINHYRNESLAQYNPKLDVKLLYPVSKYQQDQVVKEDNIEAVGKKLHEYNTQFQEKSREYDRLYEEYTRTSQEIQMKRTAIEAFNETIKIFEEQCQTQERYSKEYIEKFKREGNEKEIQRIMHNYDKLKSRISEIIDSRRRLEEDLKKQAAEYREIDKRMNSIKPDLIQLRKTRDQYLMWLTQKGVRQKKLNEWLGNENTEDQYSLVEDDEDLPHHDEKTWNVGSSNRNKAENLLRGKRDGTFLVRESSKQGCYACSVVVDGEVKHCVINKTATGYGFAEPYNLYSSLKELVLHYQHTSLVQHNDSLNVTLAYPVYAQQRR", "test": "biochemical inhibition of PI3K-α"}, "[8]": {"tested_on": "other Class I PI3Ks, including the β, δ, and γ isoforms", "test": "biochemical inhibition of other Class I PI3Ks", "conditions": "δ, and γ isoforms versus PI3K-α"}, "[9]": {"tested_on": "tumor cells bearing mutant p110a", "test": "potency in tumor cells, mutant versus wild-type p110a", "format": "cell-based"}, "[10]": {"tested_on": "PIK3CA-mutant breast cancer cell lines", "test": "proliferation and apoptosis in PIK3CA-mutant breast cancer cell lines", "format": "cell-based", "conditions": "nonclinical studies"}, "mutant p110a": {"tested_on": "mutant p110a", "test": "degradation of mutant p110a", "format": "cell-based", "conditions": "nonclinical studies", "source_text": "Without being bound by any particular theory, GDC-0077 appears to exert its activity by binding to the adenosine binding site of p110a, thereby inhibiting the phosphorylation of membrane-bound phosphatidylinositol 4,5-bisphosphate (PIP2) to phosphatidylinositol 3,4,5-trisphophate (PIP3). This inhibition decreases downstream activation of pathway effectors including Akt and S6RP, resulting in decreased cellular proliferation, metabolism, and angiogenesis."}, "[11]": {"tested_on": "human breast cancer xenograft models harboring PIK3CA mutations", "test": "tumor growth in breast cancer xenograft models", "format": "in vivo", "conditions": "nonclinical studies"}, "pAkt, pPRAS40, pS6RP": {"tested_on": "pAkt, pPRAS40, pS6RP", "test": "downstream PI3K pathway markers", "conditions": "nonclinical studies"}, "[12]": {"tested_on": "patients with measurable disease", "test": "clinical study of single agent GDC-0077, RECIST v1.1 response", "format": "in vivo, human", "conditions": "among 20 patients", "source_text": "In one study using single agent administration of GDC-0077, among 20 patients with measurable disease treated with a 6-mg, 9-mg, or 12-mg QD starting dose of GDC-0077 as a single agent, 5 patients (25%) achieved PRs, while 9 patients (45%) achieved clinical benefit (defined as the percentage of patients achieving confirmed Response Evaluation Criteria in Solid Tumors, Version 1.1 [RECIST v1.1]-defined CR, PR, and/or SD [non-complete response/non-progressive disease for patients with non-measurable disease at baseline] for 24 weeks). Further, 14 of the 20 patients were enrolled at the 6-mg or 9-mg QD starting dose, and 3 patients had received prior treatment with a CDK4/6i."}, "[13]": {"tested_on": "ER+ breast cancer xenograft models", "test": "xenograft models, efficacy versus fulvestrant", "format": "in vivo", "conditions": "fulvestrant dosed according to a clinically relevant dosing scheme"}, "frontline patients": {"tested_on": "frontline patients", "conditions": "NCT01602380; cited from earlier work"}, "[14]": {"conditions": "6-mg, 9-mg, or 12-mg QD starting dose, single agent"}, "[15]": {"conditions": "CR, PR and/or SD for 24 weeks, RECIST v1.1"}}, "note": "“Also recorded” adds a separate entry of the source."}
{"smiles": "C[C@@H]1Cc2c([nH]c3ccccc23)[C@@H](c2c(F)cc(NC3CN(CCCF)C3)cc2F)N1CC(F)(F)CO", "note": "[GDC-9545]", "values": [{"measurement": "human steady-state total drug exposure relative to fulvestrant", "setting": "[1]", "result": "approximately 10 fold"}, {"measurement": "plasma protein binding compared with fulvestrant", "setting": "[2]", "result": "lower plasma protein binding"}, {"measurement": "potency relative to fulvestrant", "setting": "[3]", "result": "up to 10 times"}, {"measurement": "potency of competition with estrogens for binding to the ER", "setting": "ER", "result": "low nanomolar potency"}, {"measurement": "oral bioavailability", "setting": "oral bioavailability", "result": "orally bioavailable"}, {"measurement": "nonclinical activity", "setting": "[4]", "result": "robust nonclinical activity"}, {"measurement": "anti-proliferative effect / relative viability", "setting": "[5]", "result": "greater impact on cell viability versus estrogen withdrawal"}, {"measurement": "anti-proliferative effect / relative viability", "setting": "MCF-7.ER.Y537S cells", "result": "reduced cell numbers relative to the control condition"}, {"measurement": "anti-proliferative effect / relative viability", "setting": "[6]", "result": "reduced cell proliferation relative to control treated cells; also recorded: did not achieve the same anti-proliferative activity as the combination of the agents"}, {"measurement": "anti-proliferative effect / relative viability", "setting": "T-47D.ER.D538G cells", "result": "considerably more impactful than E2 withdrawal"}]}
{"smiles": "C[C@H](Nc1ccc2c(c1)OCCn1cc(N3C(=O)OC[C@H]3C(F)F)nc1-2)C(N)=O", "note": "[GDC-0077, (2S)-2-[[2-[(4S)-4-(Difluoromethyl)-2-oxo-3-oxazolidinyl]-5,6-dihydroimidazo[1,2-d][1,4]benzoxazepin-9-yl]amino]propanamide]", "values": [{"measurement": "inhibition of PI3K-α", "setting": "[7]", "result": "potent and selective inhibitor"}, {"measurement": "less potent biochemical inhibition of other Class I PI3Ks (selectivity)", "setting": "[8]", "result": "> 300", "unit": "fold"}, {"measurement": "potency in cells bearing mutant p110a over cells bearing wild-type p110a", "setting": "[9]", "result": "increased potency"}, {"measurement": "apoptosis", "setting": "[10]", "result": "induces apoptosis"}, {"measurement": "proliferation", "setting": "[10]", "result": "inhibits proliferation"}, {"measurement": "degradation of mutant p110a", "setting": "mutant p110a", "result": "specifically degrades mutant p110a"}, {"measurement": "tumor growth", "setting": "[11]", "result": "inhibits tumor growth"}, {"measurement": "downstream PI3K pathway markers pAkt, pPRAS40, pS6RP", "setting": "pAkt, pPRAS40, pS6RP", "result": "reduces downstream PI3K pathway markers"}, {"measurement": "patients achieving PRs", "setting": "[12]; [14]", "result": 5, "unit": "patients"}, {"measurement": "patients achieving PRs, percentage", "setting": "[12]; [14]", "result": 25, "unit": "%"}, {"measurement": "patients achieving clinical benefit", "setting": "[12]; [15]", "result": 9, "unit": "patients"}, {"measurement": "patients achieving clinical benefit, percentage", "setting": "[12]; [15]", "result": 45, "unit": "%"}, {"measurement": "anti-proliferative effect / relative viability", "setting": "[6]", "result": "did not achieve the same anti-proliferative activity as the combination of the agents"}]}
{"smiles": "C[C@]12CC[C@@H]3c4ccc(O)cc4C[C@@H](CCCCCCCCC[S+]([O-])CCCC(F)(F)C(F)(F)F)[C@H]3[C@@H]1CC[C@@H]2O", "note": "(stereo partly shown) [fulvestrant]", "values": [{"measurement": "efficacy in xenograft models", "setting": "[13]", "result": "less efficacious than GDC-9545"}, {"measurement": "clinical benefit compared with anastrozole", "setting": "frontline patients", "result": "benefit over anastrozole"}]}
